The values below come from ChEMBL document CHEMBL1681729, “2-aminomethylphenylamine as a novel scaffold for factor Xa inhibitor” (Bioorg Med Chem, 2011).

The nature of data set [1]: Solubility of the compound in Japanese Pharmacopoeia First Fluid of pH 6.8 by HPLC. Format: physicochemical.
The next data set has as its target Coagulation factor X (Homo sapiens, UniProt P00742). The experiment in a line: Inhibition of factor 10a by S2222 chromogenic substrate assay by chromogenic assay.
Data set [2] is described as follows: Solubility of the compound in Japanese Pharmacopoeia First Fluid of pH 1.2 by HPLC. In kind it is physicochemical.
The next data set concerns Plasma. Briefly: Anticoagulant activity in human plasma assessed as concentration required to double prothrombin time. In kind it is functional.
Data set [3] can be described thus: Distribution coefficient, log D of the compound at pH 7.4 by LC-MS. As to conditions: octanol/water. In kind it is physicochemical.
In data set [4] the test system is Rattus norvegicus. Briefly: Inhibition of factor 10a in overnight fasted Wistar rat plasma at 10 mg/kg, po after 4 hrs by S2222 chromogenic substrate assay. In kind it is functional.
The test system of data set [5] is Rattus norvegicus. The experiment in a line: Inhibition of factor 10a in overnight fasted Wistar rat plasma at 10 mg/kg, po after 1 hr by S2222 chromogenic substrate assay. Format: functional.
Data set [6] deals with Rattus norvegicus. The experiment in a line: Inhibition of factor 10a in overnight fasted Wistar rat plasma at 10 mg/kg, po after 2 hrs by S2222 chromogenic substrate assay. In kind it is functional.
For data set [7], the system named is Rattus norvegicus. The experiment in a line: Inhibition of factor 10a in overnight fasted Wistar rat plasma at 10 mg/kg, po after 0.5 hrs by S2222 chromogenic substrate assay. In kind it is functional.
Data set [8] in a line: Tmax in serum of cynomolgus monkey at 1 mg/kg, po after 0.5 to 24 hrs. In kind it is ADME, organism-based, Macaca fascicularis. The arrangement: dose 1 mg/kg, route oral.
The nature of data set [9]: AUC (0 to 24 hrs) in serum of cynomolgus monkey at 1 mg/kg, po after 0.5 to 24 hrs. Format: ADME, organism-based, Macaca fascicularis. The arrangement: time < 24 hr, dose 1 mg/kg, route oral.
Data set [10] in a line: Half life in serum of cynomolgus monkey at 1 mg/kg, po after 0.5 to 24 hrs. In kind it is ADME, organism-based, Macaca fascicularis. The arrangement: dose 1 mg/kg, route oral.
Data set [11] can be described thus: Cmax in serum of cynomolgus monkey at 1 mg/kg, po after 0.5 to 24 hrs by LC/MS/MS coupled with HPLC. Format: ADME, organism-based, Macaca fascicularis. The arrangement: dose 1 mg/kg, route oral.

Broadly, the solubility is how much of the substance goes into solution per volume. The IC50 is the point on the concentration scale where inhibition reaches its midpoint. As a reminder, the logD is lipophilicity at a set pH, counting ionised and neutral species. In general, inhibition in vivo refers to how much of the control response was suppressed. The Tmax is the time at which the peak concentration occurs. As a reminder, the AUC(0-t) is the area under the concentration-time curve up to a stated or last time point. By half-life is commonly meant the time needed for the level to fall by half in the phase considered. A word on the Cmax: it is the peak of the concentration-time curve.

≈ marks a conversion by molar mass, not a printed value. Where only a bound is given, the exact number is not on record here.

Chain of Coagulation factor X (P00742 41-179 limits assumed): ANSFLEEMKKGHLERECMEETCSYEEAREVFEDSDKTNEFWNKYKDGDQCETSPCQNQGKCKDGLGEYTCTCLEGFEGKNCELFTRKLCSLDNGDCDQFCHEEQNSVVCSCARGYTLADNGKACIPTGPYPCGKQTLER
Chain of Coagulation factor X (P00742 235-488 limits assumed): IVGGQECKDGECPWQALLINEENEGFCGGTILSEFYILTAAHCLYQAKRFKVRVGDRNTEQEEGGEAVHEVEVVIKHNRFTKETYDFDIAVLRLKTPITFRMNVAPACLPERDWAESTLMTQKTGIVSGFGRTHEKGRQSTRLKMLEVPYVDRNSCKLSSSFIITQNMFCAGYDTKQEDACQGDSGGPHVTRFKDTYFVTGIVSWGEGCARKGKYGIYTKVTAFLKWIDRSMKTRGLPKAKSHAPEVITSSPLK

With `CN1CCc2nc(C(=O)Nc3cnccc3CNC(=O)c3ccc(Cl)s3)sc2C1`, the solubility in data set [1] and in [2] was more than 590 µg/mL each time. Further, inhibition on Coagulation factor X was half-maximal at 13 nM (IC50). In addition, in the data set with Plasma, the Activity worked out at 1.8 µM. The same molecule registered a pH-dependent lipophilicity (logD) in data set [3] of 2.6.
`O=C(Nc1ccccc1CNC(=O)c1ccc(Cl)s1)c1ccc(N2CCOCC2=O)cc1`: the solubility in data set [1] and in data set [2] was less than 2.3 µg/mL each time. Besides, the inhibition in vivo at 10 mg/kg stood at 12.7% with Rattus norvegicus [4], 14.1% with Rattus norvegicus [5], 12.7% in the data set on Rattus norvegicus [6] and 17.1% in the data set on Rattus norvegicus [7]. The same molecule displayed a concentration for half-maximal inhibition (IC50) against Coagulation factor X of 4.1 nM. Also, the Activity in the data set on Plasma stood at 0.91 µM. This molecule also had a logD in [3] of 2.8.
Take `CN1CCc2nc(C(=O)Nc3ccccc3CNC(=O)c3cc(Cl)c[nH]3)sc2C1`: the values for the solubility in data set [1] and in data set [2] were 170 µg/mL (≈ 395 µM) and 690 µg/mL (≈ 1600 µM), respectively. This molecule had a half-inhibitory concentration (IC50) against Coagulation factor X of 48 nM. The Activity with Plasma was 2.2 µM. In data set [3], this molecule returned a logD of 3.2.
In the case of `CN1CCc2nc(C(=O)Nc3ccccc3CNC(=O)c3ccc(Cl)[nH]3)sc2C1`, the solubility is 33 µg/mL (≈ 76.8 µM) in data set [1] and more than 810 µg/mL in data set [2]. This molecule also showed a concentration for half-maximal inhibition (IC50) at Coagulation factor X of more than 10000 nM. In addition, in data set [3], the pH-dependent lipophilicity (logD) was determined as 3.1.
Regarding `CN1CCc2nc(C(=O)Nc3ccccc3CNC(=O)c3ccc(Cl)s3)sc2C1.Cl`, the time to peak (Tmax) in data set [8] came out at 0.5 h. In data set [9], this molecule showed an AUC(0-t) at 24 h of 697 ng·h/mL. In [10], this molecule showed a half-life of 3.8 h. Moreover, the maximum concentration (Cmax) in data set [11] is 83.7 ng/mL.
As to `CN1CCc2nc(C(=O)Nc3ccccc3CNC(=O)c3cc(Cl)ccn3)sc2C1`, the solubility is 150 µg/mL (≈ 339 µM) in data set [1] and 760 µg/mL (≈ 1720 µM) in data set [2]. Besides, half-maximal inhibition at Coagulation factor X (IC50) was put at 4150 nM. Moreover, the log distribution coefficient (logD) in [3] was 2.7.
`O=C(NCc1ccccc1C(=O)Nc1ccc(N2CCOCC2=O)cc1)c1ccc(Cl)s1`: the solubility in [1] is 120 µg/mL (≈ 255 µM); in [2], 140 µg/mL (≈ 298 µM). For the same molecule, 9 nM corresponded to half-maximal inhibition at Coagulation factor X (IC50). The Activity in the data set with Plasma turned out to be 1 µM. Moreover, the pH-dependent lipophilicity (logD) in data set [3] is 2.5.
The molecule `CN1CCc2nc(C(=O)NCc3ccccc3NC(=O)c3ccc(Cl)s3)sc2C1` returned an IC50 against Coagulation factor X of 5680 nM.
Take `CN1CCc2nc(C(=O)N[C@@H]3CCCC[C@@H]3CNC(=O)c3ccc(Cl)s3)sc2C1` (relative stereo): the solubility came out at 290 µg/mL (≈ 640 µM) in data set [1] and 800 µg/mL (≈ 1770 µM) in data set [2]. Moreover, on Coagulation factor X, the concentration for half-maximal inhibition (IC50) was 27 nM. Further, the Activity with Plasma was found to be 3.4 µM. Moreover, the log distribution coefficient (logD) in data set [3] worked out at 3.7.
For `CC(C)N1CCC(C(=O)Nc2ccccc2CNC(=O)c2ccc(Cl)s2)CC1`, the solubility in [1] and in data set [2] was more than 680 µg/mL in each case. Moreover, the IC50 against Coagulation factor X came to 204 nM. The Activity in the data set with Plasma turned out to be 5.2 µM. The same molecule displayed a logD in data set [3] of 1.5.
For `CN1CCc2nc(C(=O)Nc3cccnc3CNC(=O)c3ccc(Cl)s3)sc2C1`, the solubility came out at 67 µg/mL (≈ 150 µM) in data set [1] and 890 µg/mL (≈ 1990 µM) in data set [2]. Also, the half-inhibitory concentration (IC50) against Coagulation factor X turned out to be 11 nM. The Activity in the data set with Plasma worked out at 1 µM. For the same molecule, in data set [3], the log distribution coefficient (logD) amounted to 2.8.
Regarding `CN1CCc2nc(C(=O)Nc3ccccc3CNC(=O)c3ccc(Cl)cc3)sc2C1`, the solubility in data set [1] turned out to be 42 µg/mL (≈ 95.2 µM); in data set [2], 560 µg/mL (≈ 1270 µM). This molecule also yielded a half-inhibitory concentration (IC50) at Coagulation factor X of 642 nM. In [3], this molecule gave a logD of 3.4.
Consider `CN1CCc2nc(C(=O)Nc3ccccc3CNC(=O)c3ccc(Cl)cn3)sc2C1`, for which the solubility in data set [1] came to 380 µg/mL (≈ 860 µM); in data set [2], 350 µg/mL (≈ 792 µM). Moreover, half-maximal inhibition on Coagulation factor X (IC50) required 2480 nM. The same molecule yielded a logD in [3] of 2.8.
Take `CN1CCc2nc(C(=O)Nc3ccccc3CNC(=O)c3ccc(Cl)s3)sc2C1`: the solubility in data set [1] was 17 µg/mL (≈ 38 µM); in data set [2], 150 µg/mL (≈ 336 µM). This molecule also showed a logD in data set [3] of 3.3.
`CN1CCc2nc(C(=O)N3CCCC(CNC(=O)c4ccc(Cl)s4)C3)sc2C1` (stereo unspecified): the concentration for half-maximal inhibition (IC50) at Coagulation factor X is 6830 nM.
For `CN1CCc2nc(C(=O)Nc3ccccc3CNC(=O)c3cccc(Cl)c3)sc2C1`, the values for the solubility in data set [1] and in data set [2] were 160 µg/mL (≈ 363 µM) and 680 µg/mL (≈ 1540 µM), respectively. The molecule also returned a concentration for half-maximal inhibition (IC50) against Coagulation factor X of 1620 nM. In addition, the pH-dependent lipophilicity (logD) in data set [3] came to 3.3.
Turning to `CN1CCc2nc(C(=O)NCCCNC(=O)c3ccc(Cl)s3)sc2C1`, 93 nM corresponded to half-maximal inhibition against Coagulation factor X (IC50). Moreover, the Activity in the data set on Plasma stood at 7.6 µM.
As for `CN1CCc2nc(C(=O)Nc3ccncc3CNC(=O)c3ccc(Cl)s3)sc2C1`, the solubility in data set [1] was more than 4.9 µg/mL; in data set [2], 880 µg/mL (≈ 1960 µM). In addition, half-maximal inhibition against Coagulation factor X (IC50) required 12 nM. Also, the Activity with Plasma was found to be 1.4 µM. Moreover, the logD in [3] turned out to be 3.3.
Regarding `CN1CCc2nc(C(=O)Nc3ncccc3CNC(=O)c3ccc(Cl)s3)sc2C1`, the solubility was found to be 120 µg/mL (≈ 268 µM) in data set [1] and 860 µg/mL (≈ 1920 µM) in [2]. The same molecule gave an IC50 on Coagulation factor X of 18 nM. Also, the Activity with Plasma stood at 1.5 µM. Further, in [3], the logD was found to be 2.2.
On Coagulation factor X, `CN1CCc2nc(C(=O)N3CCC(NC(=O)c4ccc(Cl)s4)CC3)sc2C1` came in with a half-maximal inhibitory concentration (IC50) of 1020 nM. Besides, the Activity in the data set with Plasma is more than 20 µM.
As for `CN1CCc2nc(C(=O)Nc3ccccc3CC(=O)Nc3ccc(Cl)cn3)sc2C1`, the solubility was determined as 100 µg/mL (≈ 226 µM) in data set [1] and 600 µg/mL (≈ 1360 µM) in data set [2]. For the same molecule, the IC50 against Coagulation factor X was 623 nM. Also, in the data set with Plasma, the Activity stood at 17 µM. The same molecule displayed a logD in [3] of 2.8.
As to `CC(C)N1CCC(NC(=O)c2ccccc2CNC(=O)c2ccc(Cl)s2)CC1`, the solubility in data set [1] was more than 820 µg/mL; in data set [2], 810 µg/mL (≈ 1930 µM). At Coagulation factor X, this molecule came in with an IC50 of 1930 nM. In data set [3], this molecule returned a logD of 1.4.
With `CN1CCc2nc(NC(=O)c3ccccc3CNC(=O)c3ccc(Cl)s3)sc2C1`, the results for the solubility in [1] and in data set [2] were 100 µg/mL (≈ 224 µM) and more than 640 µg/mL, respectively. Besides, it took 59 nM to reach half-maximal inhibition against Coagulation factor X (IC50). Further, in the data set with Plasma, the Activity amounted to 2.3 µM. The pH-dependent lipophilicity (logD) in data set [3] worked out at 2.9.
In the case of `CN1CCc2nc(C(=O)N[C@@H]3CCCC[C@H]3CNC(=O)c3ccc(Cl)s3)sc2C1` (relative stereo), the figures for the solubility in data set [1] and in data set [2] were 440 µg/mL (≈ 971 µM) and more than 600 µg/mL, respectively. Further, on Coagulation factor X, the IC50 turned out to be 439 nM. Moreover, the Activity in the data set with Plasma came to 17 µM. Besides, the log distribution coefficient (logD) in data set [3] came to 3.5.
